The source of these data is US20080090863A1, “Pyridine Derivatives and Their Use as Medicaments for Treating Diseases Related to Mch Receptor” (TAISHO PHARMACEUTICAL CO., LTD., priority 2004, published 2008).

Counter-ions that a name gives are not always drawn.

For orientation: IC50 means the point on the concentration scale where inhibition reaches its midpoint.

The first experiment has as its target MCH receptor (Homo sapiens, UniProt Q99705). The experiment can be described thus: High Throughput Functional Screening: FLIPR/FDSS6000 intracellular Ca2+ assay, antagonist activity against MCH. The experiment is classed as cell-based. More on the design: class (percent of control at 10^−7 M or IC50): scale not given here. To be noted: FLIPR/FDSS, [Ca2+]i evoked by 50 nM MCH; class by percent of control at 10^−7 M or IC50. From the text: Subsequently, a functional based assay was used to confirm the lead hits, referred to as FLIPR™ (the Fluorometric Imaging Plate Reader) and FDSS6000™ (Functional Drug Screening System). This assay utilized a non-endogenous, constitutively active version of the MCH receptor.
The FLIPR and FDSS assays are able to detect intracellular Ca^2+ concentration in cells, which can be utilized to assess receptor activation and determine whether a candidate compound is an, for example, antagonist, inverse agonist or agonist to a Gq-coupled receptor. The concentration of free Ca^2+ in the cytosol of any cell is extremely low, whereas its concentration in the extracellular fluid and endoplasmic reticulum (ER) is very high. Thus, there is a large gradient tending to drive Ca^2+ into the cytosol across both the plasma membrane and ER. The FLIPR™ and FDSS6000™ systems (Molecular Devices Corporation, HAMAMATSU Photonics K.K.) are designed to perform functional cell-based assays, such as the measurement of intracellular calcium for high-throughput screening. The measurement of fluorescent is associated with calcium release upon activation of the Gq-coupled receptors.
Fluorometric Imaging Plate Reader system was used to allow for rapid, kinetic measurements of intracellular fluorescence in 96 well microplates (or 384 well microplates). Simultaneous measurements of fluorescence in all wells can be made by FLIPR or FDSS6000™ every second with high sensitivity and precision. These systems are ideal for measuring cell-based functional assays such as monitoring the intracellular calcium fluxes that occur within seconds after activation of the Gq coupled receptor.
Briefly, the cells are seeded into 96 well at 5.5×10^4 cells/well with complete culture media (Dulbecco's Modified Eagle Medium with 10% fetal bovine serum, 2 mM L-glutamine, 1 mM sodium pyruvate and 0.5 mg/mL G418, pH 7.4) for the assay next day. On the day of assay, the media is removed and the cells are incubated with 100 μl of loading buffer (4 μM Fluo4-AM in complete culture media containing 2.5 mM Probenicid, 0.5 mg/ml and 0.2% bovine serum albumin) in 5% CO2 incubator at 37° C. for 1 hr. The loading buffer is removed, and the cells are washed with wash buffer (Hank's Balanced Salt Solution containing 2.5 mM Probenicid, 20 mM HEPES, 0.5 mg/mL and 0.2% bovine serum albumin, pH 7.4). One hundred fifty μl of wash buffer containing various concentrations of test compound is added to the cells, and the cells are incubated in 5% CO2 incubator at 37° C. for 30 min. Fifty μl of wash buffer containing various concentration of MCH are added to each well, and transient changes in [Ca^2+]i evoked by MCH are monitored using the FLIPR™ or FDSS in 96 well plates at Ex. 488 nm and Em. 530 nm for 290 second. When antagonist activity of compound is tested, 50 nM of MCH is used.
Use of FLIPR™ and FDSS6000™ can be accomplished by following manufacturer's instruction (Molecular Device Corporation and HAMAMATSU Photonics K.K.).
Turning to `Cc1ccnc(N[C@H]2CC[C@@H](NC(=O)c3ccc(F)c(Cl)c3)CC2)c1.Cl` [Example 35, 3-Chloro-4-fluoro-N-{cis-4-[(4-methylpyridin-2-yl)amino]cyclohexyl}benzamide hydrochloride], the “class (percent of control at 10^−7 M or IC50)” value turned out to be 2.
On the same count and under the same terms, then `Cc1cnc(N[C@H]2CC[C@@H](NC(=O)c3ccc(F)c(Cl)c3)CC2)cc1N(C)CCc1ccccc1.Cl` [Example 49, 3-Chloro-4-fluoro-N-[cis-4-({5-methyl-4-[methyl(2-phenylethyl)amino]pyridin-2-yl}amino)cyclohexyl]benzamide hydrochloride], with 2; and `Cc1cc(C)c(N[C@H]2CC[C@@H](NC(=O)c3ccc(F)c(Cl)c3)CC2)nc1C.Cl` [Example 53, 3-Chloro-4-fluoro-N-{cis-4-[(3,5,6-trimethylpyridin-2-yl)amino]cyclohexyl}benzamide hydrochloride], with 2; and `CCCN(CCC)S(=O)(=O)c1ccc(C(=O)N[C@H]2CC[C@@H](Nc3cc(N(C)C)cc(C)n3)CC2)cc1` [Example 166, N-(cis-4-{[4-(dimethylamino)-6-methylpyridin-2-yl]amino}cyclohexyl)-4-[(dipropylamino)sulfonyl]benzamide], with 2.
The same measure, in the same setting: to `Cc1cc(N(C)C)cc(N[C@H]2CC[C@@H](NC(=O)Cc3cccc4ccccc34)CC2)n1` [Example 168, N-(cis-4-{[4-(dimethylamino)-6-methylpyridin-2-yl]amino}cyclohexyl)-2-(1-naphthyl)acetamide] belongs 2; to `Cc1cc(N(C)C)cc(N[C@H]2CC[C@@H](NC(=O)c3cccc(C(F)(F)F)c3)CC2)n1` [Example 177, N-(cis-4-{[4-(dimethylamino)-6-methylpyridin-2-yl]amino}cyclohexyl)-3-(trifluoromethyl)benzamide], 2.
The same measure, in the same setting: then `Cc1cc(N(C)C)cc(N[C@H]2CC[C@@H](NC(=O)c3cccnc3Oc3ccccc3)CC2)n1` [Example 203, N-(cis-4-{[4-(dimethylamino)-6-methylpyridin-2-yl]amino}cyclohexyl)-2-phenoxynicotinamide], with 2; and `Cc1cc(N(C)C)cc(N[C@H]2CC[C@@H](NCCOc3ccc(Cl)cc3)CC2)n1` [Example 209, N-(cis-4-{[2-(4-chlorophenoxy)ethyl]amino}cyclohexyl)-N,N-6-trimethylpyridine-2,4-diamine], with 2.

Still in this experiment, the particulars now being: FLIPR/FDSS, [Ca2+]i evoked by 50 nM MCH; class by percent of control at 10^−7 M or IC50; read-out: class (percent of control at 10^−7 M or IC50).
As for `Cc1cc(N[C@H]2CC[C@@H](NC(=O)c3ccc(F)c(Cl)c3)CC2)nc2c1CCC2` [Example 33, 3-Chloro-4-fluoro-N-{cis-4-[(4-methyl-6,7-dihydro-5H-cyclopenta[b]pyridin-2-yl)amino]cyclohexyl}benzamide hydrochloride], the IC50 is < 50 nM.
Regarding `Cc1cc(N[C@H]2CC[C@@H](NC(=O)c3ccc(F)c(Cl)c3)CC2)nc2c1CCCC2` [Example 34, 3-Chloro-4-fluoro-N-{cis-4-[(4-methyl-5,6,7,8-tetrahydroquinolin-2-yl)amino]cyclohexyl}benzamide hydrochloride], the IC50 is < 50 nM.
Regarding `CN(C)c1ccnc(N[C@H]2CC[C@@H](NC(=O)c3ccc(F)c(Cl)c3)CC2)c1` [Example 36, 3-Chloro-N-(cis-4-{[4-(dimethylamino)pyridin-2-yl]amino}cyclohexyl)-4-fluorobenzamide hydrochloride], the IC50 is < 50 nM.
On the same count and under the same terms, then `CN(C)c1ccnc(N[C@H]2CC[C@@H](NC(=O)c3cc(F)c(F)c(F)c3)CC2)c1` [Example 37, N-(cis-4-{[4-(Dimethylamino)pyridin-2-yl]amino}cyclohexyl)-3,4,5-trifluorobenzamide hydrochloride], with < 50 nM; and `O=C(N[C@H]1CC[C@@H](Nc2ccc3c(n2)CCCC3)CC1)c1ccc(F)c(Cl)c1` [Example 39, 3-Chloro-4-fluoro-N-[cis-4-(5,6,7,8-tetrahydroquinolin-2-ylamino)cyclohexyl]benzamide hydrochloride], with < 50 nM.
As for `O=C(N[C@H]1CC[C@@H](Nc2ccc3c(n2)CCCC3)CC1)c1cc(F)c(F)c(F)c1` [Example 40, 3,4,5-Trifluoro-N-[cis-4-(5,6,7,8-tetrahydroquinolin-2-ylamino)cyclohexyl]benzamide hydrochloride], the IC50 was < 50 nM.
The same measure, in the same setting: to `Cc1ccc(N[C@H]2CC[C@@H](NC(=O)c3ccc(F)c(Cl)c3)CC2)nc1C` [Example 43, 3-Chloro-N-{cis-4-[(5,6-dimethylpyridin-2-yl)amino]cyclohexyl}-4-fluorobenzamide hydrochloride] belongs < 50 nM; to `Cc1cc(N[C@H]2CC[C@@H](NC(=O)c3ccc(F)c(Cl)c3)CC2)nc(C)c1C` [Example 50, 3-Chloro-4-fluoro-N-{cis-4-[(4,5,6-trimethylpyridin-2-yl)amino]cyclohexyl}benzamide hydrochloride], < 50 nM.
Consider `Cc1cnc(N[C@H]2CC[C@@H](NC(=O)c3ccc(F)c(Cl)c3)CC2)cc1C` [Example 51, 3-Chloro-N-{cis-4-[(4,5-dimethylpyridin-2-yl)amino]cyclohexyl}-4-fluorobenzamide hydrochloride], for which the IC50 is < 50 nM.
Same read-out and setting: then `Cc1cc(C)nc(N[C@H]2CC[C@@H](NC(=O)c3ccc(F)c(Cl)c3)CC2)c1` [Example 52, 3-Chloro-N-{cis-4-[(4,6-dimethylpyridin-2-yl)amino]cyclohexyl}-4-fluorobenzamide hydrochloride], with < 50 nM; and `Cc1cc(N(C)C)cc(N[C@H]2CC[C@@H](NC(=O)c3ccc4nonc4c3)CC2)n1` [Example 146, N-(cis-4-{[4-(dimethylamino)-6-methylpyridin-2-yl]amino}cyclohexyl)-2,1,3-benzoxadiazole-5-carboxamide], with < 50 nM; and `Cc1cc(N(C)C)cc(N[C@H]2CC[C@@H](NC(=O)COc3ccc(Cl)cc3)CC2)n1` [Example 147, 2-(4-chlorophenoxy)-N-(cis-4-{[4-(dimethylamino)-6-methylpyridin-2-yl]amino}cyclohexyl)acetamide], with < 50 nM.
Same read-out and setting: then `Cc1cc(N(C)C)cc(N[C@H]2CC[C@@H](NC(=O)c3ccc(F)c(F)c3)CC2)n1` [Example 171, N-(cis-4-{[4-(dimethylamino)-6-methylpyridin-2-yl]amino}cyclohexyl)-3,4-difluorobenzamide], with < 50 nM; and `Cc1cc(N(C)C)cc(N[C@H]2CC[C@@H](NC(=O)c3ccc(Cl)cc3)CC2)n1` [Example 185, 4-chloro-N-(cis-4-{[4-(dimethylamino)-6-methylpyridin-2-yl]amino}cyclohexyl)benzamide], with < 50 nM; and `Cc1cc(N(C)C)cc(N[C@H]2CC[C@@H](NC(=O)C3(c4ccc(Cl)cc4)CCCC3)CC2)n1` [Example 186, 1-(4-chlorophenyl)-N-(cis-4-{[4-(dimethylamino)-6-methylpyridin-2-yl]amino}cyclohexyl)cyclopentanecarboxamide], with < 50 nM.
On the same count and under the same terms, to `Cc1cc(N(C)C)cc(N[C@H]2CC[C@@H](NC(=O)c3cccc([N+](=O)[O-])c3)CC2)n1` [Example 190, N-(cis-4-{[4-(dimethylamino)-6-methylpyridin-2-yl]amino}cyclohexyl)-3-nitrobenzamide] belongs < 50 nM; to `COc1ccc(Oc2ccc([N+](=O)[O-])cc2C(=O)N[C@H]2CC[C@@H](Nc3cc(N(C)C)cc(C)n3)CC2)cc1` [Example 192, N-(cis-4-{[4-(dimethylamino)-6-methylpyridin-2-yl]amino}cyclohexyl)-2-(4-methoxyphenoxy)-5-nitrobenzamide], < 50 nM.
